From patent publication US20230380427A1 (priority 2020, published 2023)
Where two headings read alike, the source gives them in different places. Marks after values point to notes of the source that are not given here.

Legend:
Plasmopara viticola = experiment: Grapevine leaf disc assay (downy mildew, Peronospora); assay type: in vivo; details: grapevine leaf discs, 5 days at 23° C.; diseased disk area versus control
Description: Exemplary tests for reduction of Peronospora symptoms were carried out on grapevine leaf discs as follows. Ten leaf discs were first inoculated with prototypes for 20 min and then treated with a spore suspension (20000 sporangia/ml) of the fungus until zoospores were released from the sporangia. Afterwards, leaf disks were placed on water agar plates and incubated for 5 days at 23° C. (16 h light/8 h darkness). Consequently, disease severity was calculated by measurement of the percentage of diseased disk area. Control treatments were included by either using water or by application of the copper-based, commercially available plant protection product Cuprozin.

F. graminearum [1] = assay type: in vivo, Fusarium graminearum; details: wheat Capo, Lennox, Trappe, Kronjet, ear treated, FHB assessed 21 days after anthesis, versus untreated control
F. graminearum [2] = assay type: in vivo, Fusarium graminearum; details: wheat Capo; versus control
F. graminearum [3] = assay type: in vivo, Fusarium graminearum; details: wheat Trappe, ear treated, versus untreated half of plot

[Ca+2].[Cl-].[Cl-] [Prototype G1, Calcium chloride]
Reduction of Symptoms (Disease Severity %) (Plasmopara viticola): 50.9** %

[Ca+2].[Cl-].[Cl-] [Prototype W2, Calcium chloride]
Reduction of Symptoms (Disease incidence %) (F. graminearum [1]): 29%

[Cl-].[Cl-].[Mg+2] [Prototype W3, Magnesium chloride]
Reduction of Symptoms (Disease incidence %) (F. graminearum [1]; listed as W3): ns
Reduction of Symptoms (Disease incidence %) (F. graminearum [1]; listed as magnesium): no influence

O=C([O-])[O-].[Ca+2] [Prototype W24, Calcium carbonate from natural resources]
Reduction of Symptoms (%) Disease incidence % (F. graminearum [2]): ns
Reduction of Symptoms (%) Disease intensity % (F. graminearum [2]): no significant effect and ns
Reduction of Symptoms (%) Disease severity % (F. graminearum [2]): ns

O=C([O-])[O-].[Ca+2] [Prototype W25, Calcium carbonate from natural resources]
Reduction of Symptoms (Disease incidence %) (F. graminearum [3]; listed as Calcium carbonate): 13%
Reduction of Symptoms (Disease incidence %) (F. graminearum [3]; listed as W25): 13* %

Sodium silicium oxide [Prototype W4]
Reduction of Symptoms (Disease incidence %) (F. graminearum [1]; listed as Silicium): no influence
Reduction of Symptoms (Disease incidence %) (F. graminearum [1]; listed as W4): ns
